Measurements as given in PMC7486280 (Journal of medicinal chemistry, 2020).
Where a SMILES comes first, the peptide text is derived from it. [ ]: non-standard residue; d: D form. The star is where a group is joined. ξ: configuration not given here. ξαMeP = CC1(C(=O)O)CCCN1; PhAc = O=C(Cc1ccccc1)*

Assays:
[1] = molecular target: T1, NTMT1 (Homo sapiens, UniProt Q9BV86); assay: SAH hydrolase; format: biochemical; settings: for fold loss in inhibition compared to 6 (BM30): IC50 ratio vs BM30; for inhibitory activity for NTMT1 (in words): up to 100 μM
T1 sequence (Q9BV86 1-223): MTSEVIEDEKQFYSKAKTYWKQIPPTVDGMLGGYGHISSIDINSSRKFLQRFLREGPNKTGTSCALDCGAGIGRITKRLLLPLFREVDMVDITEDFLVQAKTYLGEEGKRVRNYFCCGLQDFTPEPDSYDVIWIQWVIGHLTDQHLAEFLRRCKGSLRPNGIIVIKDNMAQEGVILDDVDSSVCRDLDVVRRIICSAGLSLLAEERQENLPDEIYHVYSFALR

[2] = molecular target: T1, NTMT1; settings: read-out: Kd for NTMT1; peptide substrate; cited from earlier work
[3] = molecular target: T2, G9a (Homo sapiens, UniProt Q96KQ7); assay: SAH hydrolase-coupled fluorescence selectivity assay, G9a; format: biochemical
T2 sequence (Q96KQ7 1-1210): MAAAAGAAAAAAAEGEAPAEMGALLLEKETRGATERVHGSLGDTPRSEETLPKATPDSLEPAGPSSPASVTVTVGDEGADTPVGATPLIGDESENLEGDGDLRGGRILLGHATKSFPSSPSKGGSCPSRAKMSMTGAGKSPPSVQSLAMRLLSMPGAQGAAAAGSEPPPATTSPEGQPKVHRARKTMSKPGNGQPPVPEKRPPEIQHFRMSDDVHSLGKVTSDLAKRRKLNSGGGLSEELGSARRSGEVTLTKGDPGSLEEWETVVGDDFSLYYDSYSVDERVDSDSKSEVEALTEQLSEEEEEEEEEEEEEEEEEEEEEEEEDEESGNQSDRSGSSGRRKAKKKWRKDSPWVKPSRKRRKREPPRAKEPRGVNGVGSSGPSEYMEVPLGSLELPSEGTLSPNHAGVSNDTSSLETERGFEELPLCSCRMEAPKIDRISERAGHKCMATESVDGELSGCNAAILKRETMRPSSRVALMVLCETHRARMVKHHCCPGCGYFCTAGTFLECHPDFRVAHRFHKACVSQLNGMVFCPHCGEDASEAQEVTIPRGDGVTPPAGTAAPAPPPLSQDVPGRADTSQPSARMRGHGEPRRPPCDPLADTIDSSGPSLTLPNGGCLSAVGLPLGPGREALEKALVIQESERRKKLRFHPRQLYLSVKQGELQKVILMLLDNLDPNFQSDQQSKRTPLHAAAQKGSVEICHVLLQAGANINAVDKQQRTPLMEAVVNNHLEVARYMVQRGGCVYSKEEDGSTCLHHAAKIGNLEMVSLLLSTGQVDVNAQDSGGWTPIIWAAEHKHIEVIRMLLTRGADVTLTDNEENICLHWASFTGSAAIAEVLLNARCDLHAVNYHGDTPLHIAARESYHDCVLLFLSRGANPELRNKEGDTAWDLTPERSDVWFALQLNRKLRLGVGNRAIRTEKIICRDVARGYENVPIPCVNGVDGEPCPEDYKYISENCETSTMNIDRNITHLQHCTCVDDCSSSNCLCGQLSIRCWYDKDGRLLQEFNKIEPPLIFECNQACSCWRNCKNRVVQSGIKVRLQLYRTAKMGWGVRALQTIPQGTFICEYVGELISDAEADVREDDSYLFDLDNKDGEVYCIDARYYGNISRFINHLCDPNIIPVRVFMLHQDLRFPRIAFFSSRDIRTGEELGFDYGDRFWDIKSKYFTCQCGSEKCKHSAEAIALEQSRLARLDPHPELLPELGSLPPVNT

[4] = molecular target: T1, NTMT1; assay: Inhibition mechanism, SAHH-coupled fluorescence assay; format: biochemical
[5] = system: panel of 41 MTases (NTMT1/2, PKMTs, PRMTs, DNMTs); assay: Selectivity panel of 41 MTases; format: biochemical
[6] = system: HCT116 cells; assay: Cell permeability evaluation by MALDI-MS; format: cell-based; settings: 100 μM, listed as BM30
[7] = molecular target: PRMT1 (Homo sapiens, UniProt Q99873); assay: SAH hydrolase-coupled fluorescence selectivity assay, PRMT1; format: biochemical
Sequence of PRMT1 (Q99873 whole entry, species assumed): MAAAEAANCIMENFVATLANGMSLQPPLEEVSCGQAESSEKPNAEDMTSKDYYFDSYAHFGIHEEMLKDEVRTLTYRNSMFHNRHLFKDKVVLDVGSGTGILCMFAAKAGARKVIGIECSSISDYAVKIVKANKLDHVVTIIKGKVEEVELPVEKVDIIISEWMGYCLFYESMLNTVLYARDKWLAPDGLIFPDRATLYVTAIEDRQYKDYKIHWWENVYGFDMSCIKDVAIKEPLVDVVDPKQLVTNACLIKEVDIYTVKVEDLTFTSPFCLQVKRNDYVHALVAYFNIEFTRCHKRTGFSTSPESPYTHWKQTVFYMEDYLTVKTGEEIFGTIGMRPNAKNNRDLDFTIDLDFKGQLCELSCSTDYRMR

N=C(N)NCCC[C@H](NC(=O)[C@H](CCCCN)NC(=O)[C@@H]1CCCN1C(=O)CCc1ccc(N)cc1)C(N)=O [Compound 11]
fold loss in inhibition compared to parent compound 7 ([1]; IC50 ratio vs compound 7): 3 fold

NCCCC[C@H](NC(=O)[C@@H]1CCCN1C(=O)Cc1ccc(O)cc1)C(N)=O [Compound 21]
fold loss in inhibition compared to 6 (BM30) [1]: 18 fold

YPKRIA
Kd [2]: 100 nM

N=C(N)NCCC[C@H](NC(=O)[C@H](CCCCN)NC(=O)[C@@H]1CCCN1CCc1ccc(O)cc1)C(N)=O [Compound 12]
inhibitory activity for NTMT1 (in words) [1]: did not show any inhibitory activity

N=C(N)NCCC[C@H](NC(=O)[C@H](CCCCN)NC(=O)[C@@H]1CCCN1C(=O)CCc1ccc(O)cc1)C(N)=O [Compound 10]
fold loss in inhibition compared to 6 (BM30) [1]: 5 fold

C[C@@H](O)[C@H](NC(=O)[C@H](CCCCN)NC(=O)[C@@H]1CCCN1C(=O)Cc1ccc(O)cc1)C(N)=O [Compound 18]
fold loss in inhibition compared to 6 (BM30) [1]: 5 fold

C[C@H](NC(=O)[C@H](CCCCN)NC(=O)[C@@H]1CCCN1C(=O)Cc1ccc(O)cc1)C(N)=O [Compound 19]
fold loss in inhibition compared to 6 (BM30) [1]: 5 fold

NCCCC[C@H](NC(=O)[C@@H]1CCCN1C(=O)Cc1ccc(O)cc1)C(=O)NCC(N)=O [Compound 20]
fold loss in inhibition compared to 6 (BM30) [1]: ~14 fold

NCCCC[C@H](NC(=O)[C@H](CCCCN)NC(=O)[C@@H]1CCCN1C(=O)Cc1ccc(O)cc1)C(N)=O [Compound 17]
inhibitory activity for NTMT1 (in words) [1]: negligible difference in inhibition compared to BM30

N=C(N)NCCC[C@@H](NC(=O)[C@H](CCCCN)NC(=O)[C@@H]1CCCN1C(=O)Cc1ccc(O)cc1)C(N)=O [Compound 22]
inhibition for G9a (in words) [3]: exhibited inhibition

N=C(N)NCCC[C@H](NC(=O)[C@H](CCCCN)NC(=O)c1ccccc1NC(=O)Cc1ccc(O)cc1)C(N)=O [Compound 15]
inhibitory activity for NTMT1 (in words) [1]: did not exhibit any inhibitory activity

N=C(N)NCCC[C@H](NC(=O)[C@H](CCCCN)NC(=O)c1cccc(NC(=O)Cc2ccc(O)cc2)c1)C(N)=O [Compound 14]
inhibitory activity for NTMT1 (in words) [1]: did not exhibit any inhibitory activity

N=C(N)NCCC[C@H](NC(=O)[C@H](CCCCN)NC(=O)[C@@H]1CCCN1C(=O)Cc1ccc(O)cc1)C(N)=O [Compound 6]
fold increased activity compared to 5 ([1]; IC50 ratio vs compound 5): approximately 7 fold
inhibition pattern with respect to peptide substrate RCC1-6 (SPKRIA) ([4]; varying RCC1-6, fixed SAM): competitive
inhibition pattern with respect to cofactor SAM ([4]; varying SAM, fixed RCC1-6): noncompetitive
inhibition of NTMT1 versus NTMT2 in the panel ([5]; 100 μM): comparable inhibition against both NTMT1 and NTMT2
inhibition against the remaining 39 MTases ([5]; 100 μM, duplicates): very marginal inhibition
selectivity for NTMT1/2 over other MTases of the panel ([5]; compared to PKMTs, PRMTs and DNMTs): over 100 fold
cellular level / penetration by MS detection [6]: did not display any
IC50 [7]: > 100000 nM

CC1(C(=O)N[C@@H](CCCCN)C(=O)N[C@@H](CCCNC(=N)N)C(N)=O)CCCN1C(=O)Cc1ccccc1 (stereo partly drawn) [Compound 13] (PhAc-[ξαMeP]-Lys-Arg-NH2)
inhibitory activity for NTMT1 (in words) [1]: completely lost the inhibitory activity
